Laboratory results reported in EP4324461A1, “(E)-N-CINAMOYLAMINOALKANOLES WITH MELANOGENESIS INHIBITORY ACTIVITY” (UNIWERSYTET JAGIELLONSKI, priority 2022, dated 2024).

System: human reconstructed epidermis Episkin™
Test: Skin permeation in reconstructed human epidermis (Episkin)
Format: in vitro ADME
Protocol: The tested substance A-111 in a macrogol formulation (2% A-111 in the PEG400+PEG800 base) was applied onto the epidermis in an amount of approximately 10 mg/cm^2 ("finite dose application") using a sterile inoculation loop. The amount applied was weighed accurately. As a control, a macrogol formulation without the test substance was applied onto the epidermis. The finished experimental plate was incubated at 32 °C. At specific time intervals, aliquots of the receptor fluid (0.5 mL) were collected for the analysis and replaced with 0.5 mL of fresh receptor fluid. After 24 h of culture, all of the receptor fluid was collected. The examined tissue was washed with cotton buds soaked in methanol. The donor and receptor compartments were washed with methanol, and the epidermis was separated from the inserts and transferred to methanol. Samples were stored at -20 °C until analysis. The content (concentration) of the tested substance A-111 in the receptor fluid and in individual compartments: on the surface of the epidermis, in the epidermis, in the receptor fluid was determined using measurements in a microplate reader at 281 nm on 96-well plates transmitting ultraviolet radiation.
In order to confirm proper bioavailability, studies of the permeation of compound A-111 from a solution in PEG400 were performed in a model of reconstructed human epidermis. […] The tested substance A-111 was applied onto the epidermis in the form of a 2% PEG400 solution in an amount of 15 µL. The finished experimental plate was incubated at 32 °C. At specific time intervals, aliquots of the receptor fluid (0.5 mL) were collected for the analysis and replaced with fresh fluid. After 24 h of culture, all of the receptor fluid was collected. The examined tissue was washed with cotton buds soaked in methanol. The donor and receptor compartments were washed with methanol, and the epidermis was separated from the inserts and transferred to methanol. The content (concentration) of the tested substance A-111 in the acceptor fluid and in individual compartments: on the surface of the epidermis, in the epidermis, in the receptor fluid was determined using measurements in a microplate reader at 281nm on 96-well plates transmitting ultraviolet radiation.
Permeation studies of the A-111 compound from a cosmetic formulation were performed in a model of reconstructed human epidermis. […] 25 µL of the formulation containing the tested compound A-111 was applied to the epidermis. […] The content (concentration) of the tested substance A-111 in the receptor fluid and in individual compartments: on the surface of the epidermis, in the epidermis, in the receptor fluid was determined using measurements in a microplate reader at 281 nm on 96-well plates transmitting ultraviolet radiation.

[1] = 2% A-111 in the PEG400+PEG800 base, approx. 10 mg/cm^2, 24 h

Structure (SMILES): O=C(/C=C/c1ccc(Cl)cc1)NCCCCCO [Compound A-111, (2E)-3-(4-chlorophenyl)-N-(5-hydroxypentyl)prop-2-enamide]
- accumulation in the epidermis [1]: no accumulation of compound A-111 in the epidermis
- permeation through the epidermis [1]: crosses the epidermal barrier and has the potential to penetrate the dermis
- permeation through the epidermis (2% PEG400 solution, 15 µL, 24 h): crosses the epidermal barrier and has the potential to penetrate the dermis
- permeation through the epidermis (25 µL of the cosmetic formulation (0.74% A-111), 24 h): crosses the epidermal barrier and has the potential to penetrate the dermis
